This is an account of results in US20040229777A1, “Crystalline phases of a potent HCV inhibitor” (Boehringer Ingelheim International GmbH, priority 2003, published 2004).

Series [1] in a line: XRPD analysis of the crystal phase under varied relative humidity and elevated temperature. The series is classed as physicochemical. The text has this: This behavior is typical of channel hydrates, whereby water resides within the channels in the crystal lattice and can readily move in and out of the structure. Type A is therefore believed to be a type of channel hydrate. Type B is also a variable hydrate crystalline phase of Compound (1), i.e., the number of water molecules associated with each molecule of Compound (1) may vary. […] For this reason, it is preferable to maintain Type B at a modest RH level of about 20% to 40%. X-ray powder diffraction analyses were conducted on a Bruker AXS X-Ray Powder Diffractometer Model D8 Advance, available from Bruker AXS, Inc. of Madison, Wis., using CuKα radiation. The instrument is equipped with a long fine focus x-ray tube. The tube power was set to 40 kV and 30 mA. The instrument was operated in parallel beam mode with a Gobel Mirror, using a 0.6 mm exit slit, a 0.40 soller slit, a LiF flat crystal diffracted beam monochromator and a NaI scintillation detector. A detector scan was run using a tube angle of 1° 2θ. Step scans were run from 2 to 35° 2θ, at 0.050 per step, 4 sec per step. A reference quartz standard was used to check instrument alignment. Samples were prepared for analysis by filing a zero background quartz holder.

Series [2] can be described thus: Moisture adsorption/desorption isotherm (VTI SGA-100 moisture balance). The settings on record: 25° C.; adsorption 5 to 95% RH, desorption 95 to 5% RH; samples dried at 50° C. prior to analysis. The series is classed as physicochemical. From the text:
It is clear from FIG. 3 that the moisture content of Type A varies depending on the relative humidity of its environment, up to a maximum water sorption level of about 3.7% by weight. […] It is clear from FIG. 7 that the moisture content of Type B varies depending on the relative humidity of its environment, up to a maximum water sorption level of about 4.5% by weight. Moisture adsorption/desorption data were collected on a VTI SGA-100 moisture balance system, available from VTI Corporation of Hialeah, Fla. For adsorption isotherms, an adsorption range of 5 to 95% relative humidity and a desorption range of 95 to 5% relative humidity in 5% relative humidity increments were used for analysis. The samples were dried at 50° C. prior to analysis. The analyses were conducted at 25° C. Equilibrium criteria used for the analysis were less than 0.001 percent change in 5 minutes with a maximum equilibration time of 1200 minutes if the weight criterion was not met.

Regarding `COc1ccc2c(O[C@@H]3C[C@H]4C(=O)N[C@]5(C(=O)O)C[C@H]5/C=C\CCCCC[C@H](NC(=O)OC5CCCC5)C(=O)N4C3)cc(-c3csc(NC(C)C)n3)nc2c1` [Type A], in series [1] (dry nitrogen up to ˜85% RH and elevated temperature (up to 160° C.)), the “crystal structure behaviour under varied humidity and temperature” value is on record as “crystal lattice expands at higher RH levels while maintaining its overall structure”. In series [2], the “maximum water sorption level” value is “about 3.7 % by weight”.

As to `COc1ccc2c(O[C@@H]3C[C@H]4C(=O)N[C@]5(C(=O)O)C[C@H]5/C=C\CCCCC[C@H](NC(=O)OC5CCCC5)C(=O)N4C3)cc(-c3csc(NC(C)C)n3)nc2c1` [Type B], the “crystal structure behaviour under varied humidity and temperature” value in series [1] (low relative humidity (e.g., dry nitrogen) and/or elevated temperature (˜90° C.)) is recorded as “readily loses water resulting in a partial collapse of its crystal structure”. For the same molecule, the “maximum water sorption level” value in series [2] is given as “about 4.5 % by weight”.
